Strand notation (5' to 3'): a small letter for the sugar, then the base; units joined by * are phosphorothioate-linked, units joined directly phosphodiester-linked; [ ] holds rarer units or linkages, { } end groups; capitals alone tell only the bases. d = 2'-deoxy (DNA)
Legend:
[1] = tested on: Human peripheral blood mononuclear cells (PBMCs); assay: Induction of IFNα2a and IL-10 in human PBMCs (48 hours, Meso Scale Discovery kits); format: cell-based
Method: Human peripheral blood mononuclear cells (PBMCs) were isolated from buffy coats from two donors with Ficoll-Paque™ PLUS (GE Healthcare Bio-Sciences, Pittsburgh, Pa.) using standard Ficoll separation methods. Isolated PBMCs were washed twice in phosphate buffered saline (PBS) containing 2% fetal bovine serum (FBS), and 2 mM ethylenediaminetetraacetic acid (EDTA). The cells were resuspended and cultured in 96-well U-bottom plates at 1×10^6 cells per well in RPMI 1640 containing 10% FBS, 2 mM L-glutamine, 100 U/mL pencillin and 100 μg/mL streptomycin. The cells were cultured in the presence of C59-08 at doses ranging from 0.016 μM to 5 μM or 7 μM control ODN 1040 in a humidifed incubator at 37° C., 5% CO2 in final volume of 0.2 mL for 48 hours. Supernatants were harvested and assayed for IFNα2a and IL-10 using Meso Scale Discovery human IFNα2a and human IL-10 tissue culture kits (Rockville, Md.).

[2] = tested on: human tumor histocultures (renal cell carcinoma, NSCLC, bladder and colorectal cancer); assay: Ex vivo treatment of human tumor histocultures, mRNA expression by real-time quantitative PCR; format: cell-based; conditions: 0.1, 0.5, and 1 μM, 24 hours; RCC (n=5), NSCLC (n=3), bladder (n=1), colorectal (n=1) histocultures
Method: Human tumor specimens from patients were obtained from commercial sources (Bio-Options, Folio, Coversant Bio, and Boston BioSource) and University of Rochester.
Fresh tumor tissues were collected within 1 hour following surgery and placed into AQIX transportation media (AQIX, UK). Tissues were transported overnight at 4° C. to Merck Research Laboratories, Palo Alto, Calif.
The tumors were embedded in UltraPure™ low melting point agarose (Invitrogen, Carlsbad, Calif.) and were cut 400 μm with Mcllwain™ Tissue Chopper (Stoelting Co., Wood Dale, Ill.). The tumor slices were first set on the Millicell-CM cell culture insert (Millipore, Billerica, Calif.) and cultured at the interface between air and medium of 1 ml DMEM supplemented with 4.5 g/L glucose, L-glutamine, sodium pyruvate (Mediatech, Inc., Manassas, Va.), 10% FBS (SAFC Biosciences, Lenexa, Kans.), 100 U/ml penicillin, and 100 ug/ml streptomycin in humidifed incubator at 37° C., 5% CO2.
The tumor slices were cultured in the presence of 0.1, 0.5, and 1 μM C59-08 or 1 μM control ODN 1040 for 24 hours. The tumor samples were snap frozen in dry ice and stored at […] prior to processing.
Total RNA was isolated by homogenization into RNA STAT-60 (Tel-Test, Friendswood, Tex.) using a polytron homogenizer. The total RNA was extracted according to the manufacturer's protocol. After precipitation with isopropanol, total RNA was re-extracted with phenol:chloroform:isoamyl alcohol (25:24:1) (Sigma-Aldrich, St. Louis, Mo.) using phase-lock light tubes.
DNase-treated total RNA was reverse-transcribed using QuantiTect Reverse Transcription (Qiagen, Valencia, Calif.) according to manufacturer's protocol. […] Real-time quantitative PCR on 10 ng of cDNA from each sample was performed using unlabeled primers at 900 nM each with 250 nM of FAM-labeled probe in a TAQMAN™ RTqPCR reaction on the Fluidigm Biomark sequence detection system (Fluidigm, Foster City, Calif.). Levels of ubiquitin were measured in a separate reaction and were used to normalize the data by the Δ-Δ Ct method. […]

[3] = tested on: TC-1 tumors; assay: Anti-tumor activity in mouse TC-1 bilateral tumor model; format: in vivo; conditions: antibody 10 mg/kg IP
Excerpt: Approximately seven to eight week old female C57BL/6J mice were obtained from Jackson Laboratory (Sacramento, Calif.). Conventional animal chow and water were provided ad libitum. Animals were housed for one week prior to the start of the study. The average weight of the animals at the start of the study (i.e. tumor implantation) was 19 grams.
The TC-1 cell line, provided by Johns Hopkins University (Baltimore, Md.) is derived from mouse primary lung epithelial cells that were cotransformed with human papilloma virus (HPV-16) E6 and E7 and c-Ha.ras oncogene (Lin K Y et al. Cancer Res. 1996 Jan. 1, 56(1):21-6). TC-1 cells are syngeneic to C57BL6/J strain.
The TC-1 cells were cultured in DMEM supplemented with 10% fetal bovine serum and 0.4 mg/mL Geneticin. Sub-confluent TC-1 cells were injected subcutaneously (SC) in 0.1 mL of serum-free DMEM in both lower dorsal flanks (1×10^5 in right flank and 0.5×10^5 in left flank) of each animal. Animals were first shaved with electronic clippers in the areas that were used for the implantation.
Tumors were measured the day before the first dose and twice a week thereafter. Tumor length and width were measured using electronic calipers and tumor volume determined using the formula Volume (mm^3)=0.5×Length×[…] where length is the longer dimension. Animals were weighed the day before the first dose and twice a week thereafter. […]

[4] = 2 donors, 0.016 μM to 5 μM, supernatant

“5′-TCGAACGTTCGAACGTTCGAACGTTCGAAT-3′ (DNA dT*dC*dG*dA*dA*dC*dG*dT*dT*dC*dG*dA*dA*dC*dG*dT*dT*dC*dG*dA*dA*dC*dG*dT*dT*dC*dG*dA*dA*dT) [Compound C59-08, oligodeoxynucleotide with a phosphorothioate backbone and 5′OH and 3′OH; CpG class C type TLR9 agonist]” was tested, and the “optimal concentration for IFNα2a and IL-10 production” value [1] was 0.2 µM, the IFNα2a production [1, 4] was “induces” and the IL-10 production [1, 4] was “induces”. For the same substance, the “mRNA expression of IFNα-inducible genes (IFNα2, MCP1, MCP2, OAS2, IP-10, GBP1, ISG-54, MxB, and TRAIL)” value [2] was “induced”, the “mRNA expression of cytokines (IFNβ, IL-10, IL-12, IL-6, and TNFα)” value [2] was “induced” and the “mRNA expression of immune activation markers (CD80, CD86, CD40, CD70 and OX40L)” value [2] was “induced”. The “Complete regressions (CRs) of non-injected tumors” value ([3]; left flank tumor, ODN IT only in right tumors on Days 0, 4, 8, 12) was “did not result in CRs” and the “Complete regressions (CRs) of injected tumors” value ([3]; right flank tumor, ODN IT (C59-08 2.5 mg/kg, CpG 1826 1 mg/kg) on Days 0, 4, 8, 12) was “did not result in CRs”.

Source: patent US20180161427A1, “COMBINATION OF AN ANTI-IL-10 ANTIBODY AND A CPG-C TYPE OLIGONUCLEOTIDE FOR TREATING CANCER” (MERCK SHARP & DOHME CORP., priority 2015, published 2018)
